The results in this text go back to patent publication US20120328713A1, “Articles of Manufacture with Improved Anti-microbial Properties” (priority 2009, published 2012).

Data set [1] has as its system Escherichia coli (ATCC 25922). Briefly: MBEC P&G assay in dilutions of feces. Format: cell-based. The method, then: The challenge time was 4 hours. The tested concentration range for both silver compounds was 500 to 7.8 ppm.
Data set [2] deals with Escherichia coli (ATCC 25922). Put plainly: MBEC P&G assay in dilutions of urine. Format: cell-based. How it is done: The effects of silver (III) periodate and silver nitrate in different dilutions of urine (0.001%, 0.01%, 0.1%, 1%, 10%, 50%) using the MBEC™ P&G assay were tested against Escherichia coli (ATCC 25922)The challenge time was 4 hours. The tested concentration range for both silver compounds was 500 to 7.8 ppm.

For data set [3], the system named is P. aeruginosa ATCC 27853. Put plainly: Silver (III) periodate efficacy testing in the presence of Cl-, SO4 2-, and PO4 3-. Format: cell-based. The settings on record: 30 minutes, 1.5-200 ppm. How it is done:
Silver (III) periodate was tested for efficacy in water, 1% NaCl, 1% K2SO4, and 1% K2HPO4 solutions, and compared with silver nitrate. The test solutions were tested against P. aeruginosa ATCC 27853. The challenge time was 30 minutes. Silver (III) periodate and silver nitrate were tested at range of 1.5-200 ppm.

Data set [4] deals with Escherichia coli (ATCC 25922). Briefly: MBEC P&G assay in dilutions of mucin. Format: cell-based. How it is done: The effects of silver (III) periodate and silver nitrate in different dilutions of mucin (2.0%, 1.0%, 0.5%, 0.25%, 0.12%, 0.06%) were tested using the MBEC™ P&G assay against Escherichia coli (ATCC 25922)The challenge time was 4 hours. The tested concentration range for both silver compounds was 500 to 7.8 ppm.

For data set [5], the system named is Escherichia coli ATCC 25922. Briefly: MBEC P&G assay in dilutions of human serum. Format: cell-based. The method, then: (§1) The effects of silver (III) periodate and silver nitrate were tested in different dilutions of human serum (0.001%, 0.01%, 0.1%, 1%, 10%, 50%) using the MBECTM P&G assay against relevant clinical human pathogens Escherichia coli, Staphylococcus aureus (MRSA), and Candida albicans. The challenge time was 4 hours. The tested concentration range for the silver compounds was 500 to 7.8 ppm.

The subject of data set [6] is Staphylococcus aureus (MRSA) 456. Put plainly: MBEC P&G assay in dilutions of human serum. Format: cell-based. The method, then: as §1
For data set [7], the system named is Candida albicans ATCC 28367. Briefly: MBEC P&G assay in dilutions of human serum. The settings on record: all concentrations of human serum. Format: cell-based. The method, then:
as §1

The subject of data set [8] is bacterial canker (Clavibacter michiganensis pv. michiganensis). Put plainly: Field trial, foliar spray against bacterial canker in tomatoes (Example 19). Format: in vivo, tomatoes (Lycopersicon esculentum). Particulars: after three treatment sprays; full dose. The method, then: (§2) Silver (III) periodate was tested as a bactericidal foliar spray treatment against bacterial canker (Clavibacter michiganensis pv. michiganensis) in tomatoes (Lycopersicon esculentum).
(§3) See Example 18 for Preparation of Tomato Seed; Preparation of Field; Seeding; Plot Maintenance; Preparation of Spray Treatment Solutions and Inoculum; Spray Treatment Procedure; and Data Collection.

Data set [9] has the same test system. Put plainly: Field trial, foliar spray against bacterial canker in tomatoes (Example 20). Format: in vivo, tomatoes (Lycopersicon esculentum). How it is done:
as §2, §3

Data set [10] relates to bacterial speck (Pseudomonas syringae pv. tomato). Put plainly: Field trial, foliar spray against bacterial speck in tomatoes (Example 18). Format: in vivo, tomatoes (Lycopersicon esculentum). The settings on record: after three treatment sprays.
The nature of data set [11]: Stability of partially dehydrated sodium diperiodatoargentate in the presence of saline. Format: physicochemical. Particulars: compared with the fully hydrated compound. How it is done: Fully hydrated sodium diperiodatoargentate was made, ground using a mortar and pestle, and spread in an even thin layer in a pre-heated (120° C.) non-reactive container (e.g. glass or ceramics). The thin layer was necessary to prevent areas of poor heat transfer. The container was then placed in an oven at 120° C. for 15 minutes. After 15 minutes, the sample was removed from the oven and transferred to a sealed container (glass vial), which was then stored in a dessicator in the dark at room temperature to prevent the material from adsorbing water.
Relative to the fully hydrated sodium diperiodatoargentate, the partially dehydrated sodium diperiodatoargentate is darker in color and is a much finer powder (which will be advantageous for incorporation into polymers).

The test system of data set [12] is Pseudomonas aeruginosa biofilms. Put plainly: Log reduction and MBEC assays on biofilms. Particulars: 4 hours. Format: cell-based.

Some results are limits rather than exact numbers.

Regarding `O=[N+]([O-])[O-].[Ag+]` [silver nitrate, reference compound], the “MBC, effective level” value is < 7.8 ppm in data set [1] (1.56% feces); < 7.8 ppm in [1] (3.13% feces); < 7.8 ppm in [1] (6.25% feces); 15.6 ppm in data set [1] (12.5% feces); 31.25 ppm in data set [1] (25% feces); 62.5 ppm in [1] (50% feces). The “MBEC effectiveness compared with silver(III) periodate” value in data set [1] (in the presence of feces) is “more effective than silver(III) periodate in higher concentrations of feces but less effective in lower concentrations”. Further, the MBC cut-off point is 31.25 ppm in data set [2] (50.0% urine) and 62.5 ppm in data set [2] (100% urine). Moreover, the log reduction entry in [2] (500 and 250 ppm, all tested concentrations of urine) was “approximately equal log reductions”. Also, the “log reduction compared with the other compound” value in data set [2] (compound concentrations of 125 ppm and below) is “larger log reduction in the higher concentrations of urine”; in data set [4] (mucin 0.5% and lower, higher compound concentrations) it was “better log reductions”; in data set [6] (0.001% human serum, 500 ppm), “higher log reduction only at 500 ppm with a two magnitude difference”. Further, the killing result in [3] (in the presence of 1% NaCl or 1% K2HPO4) is listed as “unable to kill at any of the tested concentrations”; in [3] (no salt and 1% K2SO4) it was “effective at killing all the cells for the entire challenge range”. Besides, the “log reduction, trend with compound concentration” value in [4] (regardless of the concentration of mucin) is on record as “the lower the concentration of silver nitrate, the lower the log reduction was”; in data set [5] (human serum 1% or 0.001%) it was “no effect on the log reduction”; in data set [5] (human serum 50%, 10%, and 0.1%), “log reductions decreased significantly with a decrease in the concentration of silver nitrate”; in [7], “Log reductions decreased with a decrease in concentration of silver nitrate”. Besides, in [6] (0.1% and 0.01% human serum), the killing activity entry is listed as “no significant killing activity”.

For the molecule oxysilver nitrate [reference compound], the “disease severity on foliage” value in data set [8] is reported as “best at reducing disease severity on foliage”; in data set [9] (after three treatment sprays, low and high dose), “best at reducing disease severity on foliage”; in [9] (after two treatment sprays, high dose), “best at reducing disease severity on foliage”; in data set [10], “best at reducing disease severity on foliage”.

For sodium diperiodatoargentate, the “stability in the presence of saline” value in data set [11] is recorded as “same level of stability as the fully hydrated compound”. Further, the kill of biofilms entry is “significantly higher kill than the fully hydrated sodium diperiodatoargentate” in data set [12] (200 ppm, p<0.05) and “no significant differences” in [12] (all other concentrations (1.56 ppm to 200 ppm range)).
